Source: patent US20160208246A1, “COMPOSITIONS AND METHODS FOR TREATING A HEMATOLOGICAL MALIGNANCY ASSOCIATED WITH AN ALTERED RUNX1 ACTIVITY OR EXPRESSION” (YEDA RESEARCH AND DEVELOPMENT CO. LTD., priority 2013, published 2016)
Residues, ends and D or L forms follow the SMILES beside them. *: point of attachment. Cbz = O=C(OCc1ccccc1)*; CH2F = FC*

How the values were obtained:
RUNX1 = assay: siRNA-mediated RUNX1 KD in Kasumi-1 cells (RT-qPCR, Western blotting); type: cell-based, human; conditions: Western blot, 50 μM, 24 hrs after 72 hrs siRNA
Excerpt: FIG. 1A, upper panel, is a schematic illustration of RUNX1 (blue) and RUNX1-ETO (A-E) (blue-red) transcripts indicating regions targeted by the siRNAs used to knock down (KD) expression of either RUNX1 (bars underneath RUNX1 marked in green and orange) or A-E (black bar underneath A-E fusion region). […] NO: 49) (as marked in green in the upper panel). Total RNA isolated 24 hrs post electroporation of RUNX1-targeting or non-targeting (NT) control siRNA. Data shown represent mean expression±SE. Shown are results from one of three experiments with the same findings. Primers used for RT-qPCR are presented in Table 1 (in the Examples section which follows). […] Blots were reacted with an antibody (Ab) against RUNX1-N-terminus or Lamin. Results from one of two experiments with the same findings are shown. […] KD efficiency was assessed both by RT-qPCR and immunoblotting. […] Cells were collected, washed once in PBS, and nuclear proteins were extracted and analyzed by Western blotting as previously described [Aziz-Aloya, R. et al., Cell Death (1998) 5, 765-773]. […] Quantitation of cDNAs was performed by qPCR using Roche LC480 LightCycler with sequence-specific primers (Table 1, below) and miScript SYBR Green PCR kit (QIAGEN). Target transcript quantification was calculated relative to ACTB mRNA, which served as an internal control. Standard errors were calculated using REST.

Kasumi-1 cells = assay: Cell cycle analysis (Propidium iodide, FACS); type: cell-based, human; conditions: 50 μM, 24 hrs, three days post siRNA-delivery
Excerpt: FIGS. 1B and 1C illustrate cell cycle analysis 8 days post transfection with either RUNX1-targeting (SEQ ID NO: 52) or control non-targeting (NT) siRNA. FIG. 1B illustrates cells which were subjected to two successive transfections (at days 0 and 4) with either RUNX1-targeting or NT siRNA. Propidium iodide (PI) was used to assess cellular DNA content by FACS analysis. Bar numbers indicate the relative size (in %) of labeled population out of total cells. Indicated cell cycle phases: subG1; G1; S and G2M; and FIG. 1C are histograms summarizing the distribution of cell population as analyzed in FIG. 1B. Data represents mean±STDV values of five independent experiments.
FIG. 1H illustrates that caspase inhibition rescues Kasumi-1^RX1-KD from apoptosis. […] Histograms show the distribution of cells among cell cycle phases determined as detailed above. […]
FIGS. 2C-2G illustrate that KD of A-E rescues Kasumi-1 cells from RUNX1 KD-induced apoptosis. […] FIGS. 2C-2F, following incubation for 8 days, cells were stained with PI and analyzed by FACS for cell cycle; and FIG. 2G are histograms showing the distribution of cells among cell cycle phases. […]
For cell cycle analysis, cells were stained with Propidium iodide (Sigma-Aldrich) according to standard procedure. […] All data were collected using LSRII flow cytometer (BD Biosciences) and analyzed by FlowJo software.

Q: For `COC(=O)C[C@H](NC(=O)[C@H](C)NC(=O)[C@@H](NC(=O)OCc1ccccc1)C(C)C)C(=O)CF` [Z-VAD-FMK] (Cbz-Val-Ala-Asp(OMe)-CH2F), which “RUNX1 protein levels in Kasumi-1^RX1-KD cells” value (RUNX1) is on record?
A: Its value is “further reduced”.

Q: What about the “apoptosis in Kasumi-1^RX1-KD cells” value (Kasumi-1 cells) of the same molecule?
A: The value was “completely blocked apoptosis”.

Q: And the “subG1 fraction of Kasumi-1^RX1-KD cells” value (Kasumi-1 cells)?
A: Its value is “profound decrease”.
